In brackets after ≈: the same amount, converted by molar mass. Several values for one entry are separate records, joined by “and”; a condition that tells them apart may be missing. Equal entries are not always repeated.
How the values were obtained:
[1] = system: methicillin-resistant Staphylococcus aureus (MRSA) 63718; test: In vitro antibacterial evaluation, broth microdilution MIC, MRSA isolate 63718; format: cell-based; settings: clinical isolate MRSA 63718
[2] = physchem
[3] = system: S. aureus and MRSA isolates; test: Minimum bactericidal concentration (MBC) by subcultivation
[4] = system: Staphylococcus aureus ATCC 29213; test: In vitro antibacterial evaluation, broth microdilution MIC, reference strain; format: cell-based; settings: S. aureus ATCC 29213
[5] = system: THP1-Blue™ NF-κB cell line; test: In vitro cell viability assay (WST-1); format: cell-based; settings: Homo sapiens; THP1-Blue NF-κB cells, 24 h incubation, WST-1, mean ± SEM, n = 6; read-out: Tox IC50 ± SEM
Description: The cytotoxic effect of the tested compounds was specified on THP1-Blue™ NF-κB cell line (Invivogen; San Diego, CA, USA), as described previously. […] The final concentration of DMSO was 0.1% (v/v) in each well. The viability analysis was performed after 24 h incubation with the tested substances using the WST-1 Cell Proliferation Reagent kit (Roche Diagnostics, Basel, Switzerland) according to the manufacturer’s manual. […] The IC50 values were calculated by four-parameter logistic (4PL) analysis from obtained viability curves by GraphPad Prism 8.0.1 (San Diego, CA, USA) software.

[6] = system: S. aureus ATCC 29213; test: MTT assay of bacterial viability; settings: Staphylococcus aureus, ATCC29213, read-out: viability of S. aureus ATCC 29213 (MTT)
[7] = system: NF-κB in THP1-Blue™ NF-κB cells; test: Determination of NF-κB activity after LPS stimulation (Quanti-Blue); format: cell-based, human; settings: 1 µM compound, LPS 1 µg/mL; for increase of NF-κB activity / decrease of NF-κB activity: 1 h pretreatment, 24 h, vs DMSO group
Description: To evaluate the anti-inflammatory potential of novel compounds, their ability to attenuate the lipopolysaccharide (LPS)-activated pro-inflammatory transcription nuclear factor (NF)-κB was measured as was described previously. Briefly, THP1-Blue™ NF-κB cells were pretreated by tested compounds dissolved in DMSO in the non-toxic concentration 1 µM for 1 h. After LPS (1 µg/mL) stimulation, the NF-κB activity was evaluated by Quanti-Blue medium (Invivogen) according to the manufacturer’s instructions. The results from 3 independent experiments performed in triplicate (n = 9) were analyzed by GraphPad Prism 8.0.1 software. The outlaying values were excluded by ROUT algorithms (Q = 5%).
Figure 1 Effect of tested compounds on activity of transcription factor NF-κB. […] Then, lipopolysaccharide (LPS) 1 µg/mL was added to trigger the NF-κB activation. The activity of NF-κB was measured 24 h after LPS stimulation using QuantiBlue™ assay. The graph represents mean ± SEM (n = 9). […] Groups were compared with the help of the one-way ANOVA test followed by Fisher’s LSD multiple comparison test. * indicates statistical significance (p < 0.05) to DMSO group; ** indicates statistical significance (p < 0.01) to DMSO group; *** indicates statistical significance (p < 0.001) to DMSO group; **** indicates statistical significance (p < 0.0001) to DMSO group. CA—cinnamic acid.

[8] = RP-HPLC, 72:28 MeOH:H2O
[9] = system: Mycobacterium tuberculosis H37Ra/ATCC 25177; test: In vitro antimycobacterial evaluation; format: cell-based; settings: M. tuberculosis H37Ra
From the text: Isoniazid (Sigma) was used as the standard.

[10] = Lipophilicity determination by RP-TLC; format: physicochemical; design: key to RM (MeOH:H2O): RM = log(1/RF - 1), from RP-18 TLC; settings: for RM (MeOH:H2O): 72:28 MeOH:H2O; for RM (pH 7.4): 72:28 MeOH:NaOAc buffer (pH 7.4)
Description: RM values were determined from the RP-18 TLC measurements. […] The volatiles were carefully evaporated, and the plate was developed by MeOH (100%) or MeOH: H2O-HPLC (72:28 v/v) or MeOH: NaOAc buffer, pH 7.4 (72:28 v/v). After drying, the spots were visualized under UV (λ = 365 nm). RM data were obtained from equation: RM = log(1/RF-1). Each experiment was repeated three times.

[11] = system: methicillin-resistant Staphylococcus aureus (MRSA) SA 630; test: In vitro antibacterial evaluation, broth microdilution MIC, MRSA isolate SA 630; format: cell-based; settings: clinical isolate MRSA SA 630
[12] = Staphylococcus aureus, ATCC29213

Structure (SMILES)	MIC [1] [µM]	chromatographic logD ([2]; pH 6.5)	chromatographic logD ([2]; pH 7.4)	MBC ([3]; S. aureus and MRSA isolates, compared with MIC)	bacteriostatic/bactericidal classification ([3]; bactericidal if MBC/MIC ≤4)	MIC [4] [µM]	MIC [4, 12]	IC50 [5] [µM]	viability at 25.9 µM [6] [%]	increase of NF-κB activity [7]	Logk [8]	MIC [9] [µM]	RM (MeOH:H2O) [10]	RM (pH 7.4) [10]	RM (100% MeOH) [10]	MIC [11] [µM]	decrease of NF-κB activity [7]	anti-inflammatory potential (LPS-induced NF-κB activation), in words [7]
O=C(/C=C/c1ccccc1)Nc1ccc(C(F)(F)F)c(F)c1 [Compound 10, (2E)-N-[3-Fluoro-4-(trifluoromethyl)phenyl]-3-phenylprop-2-enamide]	25.9 (≈ 8.01 µg/mL)	0.61	0.633	equal to the MIC values	bactericidal	25.9 (≈ 8.01 µg/mL)	8 µg/mL and 25.9 µM	> 20	13.4 ± 0.1	10–15%	0.5789	> 414	0.7923	0.5960	−0.5032	12.9 (≈ 3.99 µg/mL)	–	–
O=C(/C=C/c1ccccc1)Nc1c(F)cc(F)cc1F [Compound 2, (2E)-3-Phenyl-N-(2,4,6-trifluorophenyl)prop-2-enamide]	> 924	0.0107	0.026	–	–	–	> 924 µM	> 20	–	10–15%	−0.0831	> 462	0.1218	0.1951	−0.6536	> 924	–	–
O=C(/C=C/c1ccccc1)Nc1ccc([N+](=O)[O-])c(C(F)(F)F)c1 [Compound 18, (2E)-N-[4-Nitro-3-(trifluoromethyl)phenyl]-3-phenylprop-2-enamide]	> 762	0.51	0.557	–	–	–	> 762 µM	> 20	–	–	0.5004	> 381	0.6927	0.6160	−0.4804	> 762	approximately 9%	–
O=C(/C=C/c1ccccc1)Nc1cc(C(F)(F)F)ccc1Br [Compound 13, (2E)-N-[2-Bromo-5-(trifluoromethyl)phenyl]-3-phenylprop-2-enamide]	> 696	0.594	0.616	–	–	–	> 696 µM	> 20	–	–	0.5561	> 348	0.7194	0.5619	−0.4325	> 696	–	insignificant anti-inflammatory potential
O=C(/C=C/c1ccccc1)Nc1ccc(F)cc1C(F)(F)F [Compound 14, (2E)-N-[4-Fluoro-2-(trifluoromethyl)phenyl]-3-phenylprop-2-enamide]	> 828	0.222	0.243	–	–	–	> 828 µM	> 20	–	–	0.1607	> 414	0.3011	0.1330	−0.6797	> 828	approximately 9%	–
